For assay [1], the system named is DU-145. The assay is described as follows: Growth inhibition of human DU145 cells at 10 uM incubated for 48 hrs by sulforhodamine B assay relative to control. Format: functional. To be noted: DU-145, 48 h, read-out: GI.
Assay [2] has as its system COLO 205. The assay is described as follows: Growth inhibition of human COLO205 cells at 10 uM incubated for 48 hrs by sulforhodamine B assay relative to control. To be noted: COLO 205, 48 h, read-out: GI. Format: functional.
The test system of assay [3] is SN12C. Description: Growth inhibition of human SN12C cells at 10 uM incubated for 48 hrs by sulforhodamine B assay relative to control. Format: functional. To be noted: read-out: GI.
Assay [4] concerns TK-10. The assay is described as follows: Growth inhibition of human TK10 cells at 10 uM incubated for 48 hrs by sulforhodamine B assay relative to control. The settings on record: TK-10, 48 h, read-out: GI. Format: functional.
The subject of assay [5] is MCF7. The assay is described as follows: Growth inhibition of human MCF7 cells at 10 uM incubated for 48 hrs by sulforhodamine B assay relative to control. Format: functional. The settings on record: MCF7, 48 h, read-out: GI.
In assay [6] the test system is HCT-116. The assay is described as follows: Inhibition of clonogenicity in human HCT116 cells assessed as reduction in colony formation treated for 10 days by crystal violet staining. Format: functional, cell-based.
The subject of assay [7] is NCI-H23. The assay is described as follows: Growth inhibition of human NCI-H23 cells at 10 uM incubated for 48 hrs by sulforhodamine B assay relative to control. Format: functional. To be noted: NCI-H23, 48 h, read-out: GI.
The subject of assay [8] is A549. The assay is described as follows: Growth inhibition of human A549/ATCC cells at 10 uM incubated for 48 hrs by sulforhodamine B assay relative to control. Format: functional. To be noted: A549, 48 h, read-out: GI.
Assay [9] relates to SK-MEL-2. Description: Growth inhibition of human SK-MEL-2 cells at 10 uM incubated for 48 hrs by sulforhodamine B assay relative to control. Format: functional. To be noted: SK-MEL-2, 48 h, read-out: GI.
The test system of assay [10] is HT-29. Description: Growth inhibition of human HT-29 cells at 10 uM incubated for 48 hrs by sulforhodamine B assay relative to control. Format: functional. The settings on record: HT-29, 48 h, read-out: GI.
Assay [11] concerns CCRF-CEM. Description: Growth inhibition of human CCRF-CEM cells at 10 uM incubated for 48 hrs by sulforhodamine B assay relative to control. Format: functional. To be noted: read-out: GI.
The test system of assay [12] is KM12. Description: Growth inhibition of human KM12 cells at 10 uM incubated for 48 hrs by sulforhodamine B assay relative to control. Format: functional. The settings on record: KM12, 48 h, read-out: GI.
Assay [13] concerns EKVX. The assay is described as follows: Growth inhibition of human EKVX cells at 10 uM incubated for 48 hrs by sulforhodamine B assay relative to control. To be noted: read-out: GI. Format: functional.
Assay [14] relates to U-251. The assay is described as follows: Growth inhibition of human U251 cells at 10 uM incubated for 48 hrs by sulforhodamine B assay relative to control. Format: functional. The settings on record: U-251, 48 h, read-out: GI.
Assay [15] relates to SK-MEL-28. Description: Growth inhibition of human SK-MEL-28 cells at 10 uM incubated for 48 hrs by sulforhodamine B assay relative to control. Format: functional. The settings on record: SK-MEL-28, 48 h, read-out: GI.
The subject of assay [16] is LOX IMVI. The assay is described as follows: Growth inhibition of human LOXIMVI cells at 10 uM incubated for 48 hrs by sulforhodamine B assay relative to control. Format: functional. To be noted: read-out: GI.
Assay [17] addresses Carbonic anhydrase 9 (Homo sapiens, UniProt Q16790). Description: Inhibition of recombinant human carbonic anhydrase 9 preincubated for 15 mins by phenol red dye based stopped flow CO2 hydration assay.
Assay [18] has as its target CDK9/cyclin T1 (Homo sapiens, UniProt P50750). Description: Inhibition of human full length N-terminal GST-HIS6 fused CDK9 (M1 to F372 residues)/N-terminal HIS6-fused Cyclin-T1 (M1 to K726 residues) co-expressed in Sf9 cells using (YSPTSPS)2KK as substrate in presence of [gamma33P]ATP.
Assay [19] concerns SF-268. Description: Growth inhibition of human SF268 cells at 10 uM incubated for 48 hrs by sulforhodamine B assay relative to control. To be noted: SF-268, 48 h, read-out: GI. Format: functional.
For assay [20], the system named is A498. Description: Growth inhibition of human A498 cells at 10 uM incubated for 48 hrs by sulforhodamine B assay relative to control. Format: functional. The settings on record: A498, 48 h, read-out: GI.
Assay [21] deals with MDA-MB-435. Description: Growth inhibition of human MDA-MB-435 cells at 10 uM incubated for 48 hrs by sulforhodamine B assay relative to control. Format: functional. To be noted: MDA-MB-435, 48 h, read-out: GI.
In assay [22] the test system is 786-0. The assay is described as follows: Growth inhibition of human 786-0 cells at 10 uM incubated for 48 hrs by sulforhodamine B assay relative to control. Format: functional. The settings on record: 786-0, 48 h, read-out: GI.
Assay [23] concerns UACC-62. Description: Growth inhibition of human UACC62 cells at 10 uM incubated for 48 hrs by sulforhodamine B assay relative to control. Format: functional. The settings on record: UACC-62, 48 h, read-out: GI.
Assay [24] concerns SNB-19. The assay is described as follows: Growth inhibition of human SNB19 cells at 10 uM incubated for 48 hrs by sulforhodamine B assay relative to control. Format: functional. The settings on record: SNB-19, 48 h, read-out: GI.
The subject of assay [25] is BT-549. Description: Growth inhibition of human BT549 cells at 10 uM incubated for 48 hrs by sulforhodamine B assay relative to control. To be noted: BT-549, 48 h, read-out: GI. Format: functional.
Assay [26] relates to MDA-MB-468. The assay is described as follows: Growth inhibition of human MDA-MB-468 cells at 10 uM incubated for 48 hrs by sulforhodamine B assay relative to control. Format: functional. To be noted: MDA-MB-468, 48 h, read-out: GI.

Some results are limits rather than exact numbers.

The record followed here is ChEMBL document CHEMBL4311999, “3-Hydrazinoisatin-based benzenesulfonamides as novel carbonic anhydrase inhibitors endowed with anticancer activity: Synthesis, in vitro biological evaluation and in silico insights” (Eur J Med Chem, 2019).

Chain of CDK9/cyclin T1 (O60563 whole entry, the tested form may be a part): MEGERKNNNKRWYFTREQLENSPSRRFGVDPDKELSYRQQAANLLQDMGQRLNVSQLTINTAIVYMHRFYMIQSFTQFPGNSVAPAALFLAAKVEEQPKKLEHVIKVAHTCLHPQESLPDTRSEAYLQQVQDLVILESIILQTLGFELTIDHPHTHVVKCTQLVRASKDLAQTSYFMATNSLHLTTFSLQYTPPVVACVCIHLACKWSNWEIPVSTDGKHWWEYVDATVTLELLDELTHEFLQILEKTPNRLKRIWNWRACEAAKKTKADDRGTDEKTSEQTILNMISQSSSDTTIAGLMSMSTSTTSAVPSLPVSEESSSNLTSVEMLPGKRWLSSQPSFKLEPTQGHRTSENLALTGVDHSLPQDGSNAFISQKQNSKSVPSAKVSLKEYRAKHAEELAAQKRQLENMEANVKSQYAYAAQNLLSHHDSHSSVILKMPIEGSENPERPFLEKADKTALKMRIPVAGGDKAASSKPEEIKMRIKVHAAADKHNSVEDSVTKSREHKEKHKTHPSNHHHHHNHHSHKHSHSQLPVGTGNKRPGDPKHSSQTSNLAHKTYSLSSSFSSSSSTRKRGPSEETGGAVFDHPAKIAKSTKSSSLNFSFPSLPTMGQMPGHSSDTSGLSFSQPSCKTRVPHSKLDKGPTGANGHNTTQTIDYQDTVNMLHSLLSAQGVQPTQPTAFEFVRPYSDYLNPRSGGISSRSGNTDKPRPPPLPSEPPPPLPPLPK
Chain of CDK9/cyclin T1 (P50750 whole entry, the tested form may be a part): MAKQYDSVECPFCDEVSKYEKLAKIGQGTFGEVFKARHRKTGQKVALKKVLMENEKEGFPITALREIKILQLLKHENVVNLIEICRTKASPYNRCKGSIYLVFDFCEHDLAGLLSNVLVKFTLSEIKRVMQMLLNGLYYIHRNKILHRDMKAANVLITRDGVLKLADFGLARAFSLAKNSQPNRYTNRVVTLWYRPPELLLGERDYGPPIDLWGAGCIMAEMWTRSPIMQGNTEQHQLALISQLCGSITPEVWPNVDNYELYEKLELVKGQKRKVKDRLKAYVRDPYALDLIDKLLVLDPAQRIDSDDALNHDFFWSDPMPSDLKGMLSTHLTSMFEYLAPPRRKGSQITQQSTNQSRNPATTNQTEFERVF

`CCOC(=O)CN1C(=O)/C(=N\Nc2ccc(S(N)(=O)=O)cc2)c2cc(Br)ccc21`: the inhibition of growth at 10 µM in assay [1] amounted to 21%; in assay [2] it was 42%; in assay [3], 12%; in assay [4], 14%; in assay [5], 16%; in assay [7] it was 23%. In addition, the inhibition of growth at 10 µM in assay [8] turned out to be 69%; in assay [9], 11%; in [10], 36%; in assay [11], 47%; in [12] it was 30%; in assay [13], 17%. The inhibition of growth at 10 µM in assay [14] turned out to be 14%; in assay [15] it was 15%; in assay [16] it was 14%. The inhibition result in [6] was “Dose-dependent effect”. Moreover, in [17], the Ki was 65.4 nM. In assay [18], the IC50 was above 10000 nM.
For the compound `NS(=O)(=O)c1ccc(N/N=C2\C(=O)N(Cc3ccccc3)c3ccc(Cl)cc32)cc1`, the inhibition of growth at 10 µM in assay [1] is 13%; in assay [19] it was 35%; in [20], 22%; in assay [3], 13%; in assay [21], 21%; in assay [5] it was 25%. Besides, the inhibition of growth at 10 µM in assay [22] amounted to 52%; in assay [8], 17%; in assay [23], 34%; in assay [24], 59%; in assay [25] it was 19%; in assay [26] it was 17%. Besides, in assay [14], the inhibition of growth at 10 µM worked out at 18%. In addition, the Ki in assay [17] was 19.6 nM. Further, in [18], the IC50 was above 10000 nM.
